Assay results as given in patent US12662494B2, “Optically active bridged piperidine derivative” (Sumitomo Pharma Co., Ltd., priority 2018, dated 2026).

Columns and labels:
[1] = mouse, in vivo, po, 100 mg/kg
Method: Test 4: Pharmacokinetic Study
The test compound suspended in 0.5% methylcellulose was orally administered to 7-week-old male NOD. CB17-Prkdcscid/J mouse in a dose of 100 mg/kg. The blood sample was taken from jugular vein without anesthesia over time for 24 hours. The blood sample was centrifuged to obtain plasma. The plasma was pre-treated by methanol extraction method, and then analyzed with an LC-MS/MS to determine the concentration of the test compound. Based on the data from 0 hour after the administration until the time (t) when there was the final detection in the plasma, AUC was calculated by trapezoidal method.

RS4; 11 cells = assay: Test 2: inhibition of cell proliferation, RS4;11; type: cell-based; conditions: summary of Test 2 table, RS4;11 and MOLM-13

[2H]C([2H])=C1C[C@@H]2CC[C@H]1[C@@H](C(=O)N1CCC3(CC1)CN(c1c(C#N)cnc4sc(CC(F)(F)F)cc14)C3)N2 [Example 24, 4-{7-[(1S,3S,4R)-5-(^2H2)methylidene-2-azabicyclo[2.2.2]octane-3-carbonyl]-2,7-diazaspiro[3.5]nonan-2-yl}-2-(2,2,2-trifluoroethyl)thieno[2,3-b]pyridine-5-carbonitrile]
AUC(0-t) [1]: 6970 ng·h/mL
compound-exposure in plasma (in words) [1]: good compound-exposure in plasma
cell proliferation inhibition activity, good (in words) (RS4; 11 cells): good cell proliferation inhibition activity
cell proliferation inhibitory activity, potent (in words) (RS4; 11 cells): potent cell proliferation inhibitory activity
